{
  "source": "paper doi:10.1101/2020.04.28.066902v2",
  "about": "(bioRxiv, 2020)",
  "test": "Equilibrium peptide uptake in human OA cartilage explants",
  "type": "in vitro ADME",
  "note": "Entries after “also recorded” stand apart in the source; their conditions may differ.",
  "data": [
    {"sequence": "RKKRRQRRR [TAT-PTD]", "values": [
      {"measurement": "partitioning coefficient with 500 mM NaCl vs untreated cartilage", "setting": "500 mM NaCl added to the PBS, p=0.3, n=24", "result": "not"},
      {"measurement": "partitioning coefficient after trypsin treatment vs untreated cartilage", "setting": "cartilage degraded in 5 mM trypsin for 24 hours prior to uptake, p=0.045, n=24", "result": "reduced; also recorded: decreased partitioning coefficients; also recorded: decreased uptake"}
    ]}
  ]
}
